The subject of data set [1] is A-549 (lung adenocarcinoma). Description: MTT-based viability assay, A-549. The class given is cell-based. As to conditions: Homo sapiens, A549, 48 h of treatment, read-out: EC50 ± SD, A-549. The protocol:
(§1) To evaluate the cytotoxic activity of compounds 4a–j and 5a–5j, we performed an MTT test for three tumor cell lines, i.e.,: MCF-7 (breast adenocarcinoma), A-549 (lung adenocarcinoma), CCRF-CEM (acute lymphoblastic leukemia), and one normal cell line, MRC-5 (normal lung fibroblasts). The EC50 values, describing the half maximal effective concentration of each tested compound, were calculated and are summarized in Table 4. The representative sigmoidal dose–response curves are shown in Figure S2 (see Supporting Information S2).
(§2) CCRF-CEM (ECACC 85112105) human acute lymphoblastic leukaemia and MRC-5 pd30 Human fetal lung fibroblasts (ECACC 05090501) were purchased from European Collection of Authenticated Cell Cultures, whereas A-549 (ATCC CCL 185) human lung carcinoma and MCF-7 (ATCC HTB-22) human breast adenocarcinoma cell line were purchased from American Type Culture Collection. A-549 and MCF-7 cell lines were cultured in high glucose DMEM (Biowest) supplemented with 10% fetal bovine serum (Biowest), 2 mM L-glutamine and antibiotics (100 U/mL penicillin, 100 µg/mL streptomycin). CCRF-CEM were cultured in RPMI 1640 supplemented with 10% fetal bovine serum (EuroClone), 2 mM L-glutamine and antibiotics (100 U/mL penicillin, 100 µg/mL streptomycin). MRC-5 pd30 human fibroblasts (ECACC) were cultured in MEME, Minimum Essential Medium Eagle (Merck) supplemented with 10% fetal bovine serum (Merck), 2 mM l-glutamine, antibiotics (100 U mL^−1 penicillin, 100 μg mL^−1 streptomycin, Merck) and 1% non-essential amino-acids (Merck). Cells were grown in 75 cm^2 cell culture flasks (Sarstedt, Nümbrecht, Germany), in a humidified atmosphere of CO2/air (5/95%) at 37 °C. All the experiments were performed in exponentially growing cultures. Stock solution of tested compounds were prepared in DMSO and stored in −20 °C for maximum one month. For the cytotoxicity studies, stock solutions were diluted 200-fold with the proper culture medium to obtain the final concentrations. For cytotoxicity studies 2-fold serial dilutions of the tested compounds were prepared in the proper medium in the range from 3.125 µM to 200 µM.
(§3) After incubation with the test compounds, MTT test was performed as described previously. Optical densities were measured at 570 nm using BioTek microplate reader. All measurements were carried out in a minimum of three replicates.
(In general: Formazan colour is commonly taken as a measure of viable cells.)

In data set [2] the test system is MCF-7 (breast adenocarcinoma). Also noted: method as in PMID 28340404. The following applies: determined previously; read-out: EC50 ± SD, MCF-7; cited from earlier work.
Data set [3] has as its system CCRF-CEM (acute lymphoblastic leukemia). More on the design: method as in PMID 28340404. As to conditions: determined previously; read-out: EC50 ± SD, CCRF-CEM; cited from earlier work.
A short description of data set [4]: Solubility in DMSO (stock preparation). Format: physicochemical. The text has this: However, among the tested compounds, the highest selectivity index was obtained for 5a (2.04) for MCF-7, respectively.
For data set [5], the system named is MRC-5 (normal lung fibroblasts). Description: MTT-based viability assay, MRC-5. The class given is cell-based. As to conditions: Homo sapiens, MRC5, 48 h of treatment, read-out: EC50 ± SD, MRC-5. The protocol: as §1, §2, §3
For data set [6], the system named is MCF-7 (breast adenocarcinoma). Description: MTT-based viability assay, MCF-7. The class given is cell-based, human. The protocol: as §1, §2, §3
In data set [7] the test system is CCRF-CEM (acute lymphoblastic leukemia). Description: MTT-based viability assay, CCRF-CEM. Format: cell-based, human. The protocol: as §1, §2, §3
The next data set relates to CCRF-CEM cells. Description: Detection of apoptosis by flow cytometry (annexin V-FITC/PI). The class given is cell-based, human. As to conditions: 45 µM, 48 h, annexin V binding. The method, then:
CCRF-CEM cells were seeded in 24-well plates at 2 × 10^5 cells/well and treated with the tested compounds used in 15 µM, 30 µM, and 45 µM concentrations. After exposure to the examined compounds, the cells were collected, centrifugated at 200× g at 4 °C for 5 min, washed twice with cold phosphate–buffered saline (PBS), and subsequently suspended in binding buffer. Subsequently, 100-μL aliquots of the cell suspension were labelled according to the kit manufacturer’s instructions. Briefly, annexin V-fluorescein isothiocyanate, and propidium iodide (BD Biosciences, Pharmingen, San Diego, CA, USA) were added to the cell suspension, and the mixture was vortexed and then incubated for 15 min at RT in the dark. A cold binding buffer (400 μL) was then added and the cells were vortexed again and kept on ice. Flow cytometric measurements were performed within 1 h after labeling. Viable, necrotic, early, and late apoptotic cells were detected by FACSCanto II flow cytometer (BD Biosciences, San Diego, CA, USA) and analysed using BD FACSDiva software.
Figure 2 Effect of compounds 4f, 5g, and 5j on the progression of apoptosis/necrosis in CCRF-CEM. Percentage of viable, early, and late apoptotic, and necrotic cells after 48 h of treatment with the tested compounds (A). Percentage of CCRF-CEM cells in late apoptosis (B). Cells were stained with annexin V-FITC and PI (propidium iodide). Flow cytometry analyses were run on FACSCanto II flow cytometer (BD Biosciences, San Diego, CA, USA) and analysed using BD FACSDiva software. Graphs represent mean values ± s.e.m. *** p < 0.001 relative to control; ns—not significant. Statistical analysis for three to six independent replicates was performed using a one-way ANOVA analysis (GraphPad Software Inc., San Diego, CA, USA).
(In general: Flow cytometry measures light scatter and fluorescence of single cells or particles in a stream.)

SMILES strings stand for the structures. Where two headings read alike, the source gives them in different places.

In the case of `Brc1c(Br)c(Br)c2[nH]cnc2c1Br` [4,5,6,7-tetrabromo-1H-benzimidazole], the figures for the EC50 in data set [1], in data set [2] and in data set [3] were 36.4 ± 0.7 µM, 23.6 ± 0.1 µM and 18.1 ± 0.6 µM, respectively.
With `O=C(Cn1cnc2cc(Br)c(Br)cc21)c1ccc(Br)cc1` [Compound 4d], the “solubility in DMSO” value in data set [4] was “sparingly soluble in DMSO”.
Turning to `O=C(Cn1cnc2c(Br)cc(Br)cc21)c1c(F)cc(F)cc1F` [Compound 5j, 2-(4,6-dibromo-1H-benzimidazol-1-yl)-1-(2,4,6-trifluorophenyl)ethanone], the EC50 (commonly the concentration giving half of the maximal effect) in data set [5] turned out to be 61 ± 5.64 µM; in data set [1], 85.4 ± 3.16 µM; in data set [6] (Homo sapiens, MCF7, MTT, 48 h of treatment, read-out: EC50 ± SD, MCF-7) it was 42.2 ± 3.95 µM; in data set [7] (Homo sapiens, CCRF-CEM, MTT, 48 h of treatment, read-out: EC50 ± SD, CCRF-CEM), 34.4 ± 2.3 µM. Moreover, the “SI (selectivity index), MCF-7” value in data set [6] (SI = EC50 for normal MRC-5 line/EC50 for MCF-7) was 1.45. For the same compound, in data set [7] (SI = EC50 for normal MRC-5 line/EC50 for CCRF-CEM), the “SI (selectivity index), CCRF-CEM” value came out at 1.77. In addition, in the data set on CCRF-CEM cells, the induction of apoptosis entry is “induced apoptosis effectively”.

The record behind these values is paper PMC9315981, “N-Phenacyldibromobenzimidazoles—Synthesis Optimization and Evaluation of Their Cytotoxic Activity” (Molecules, 2022).
